How the values were obtained:
Test in all cases: drug sensitivity score (DSS3, normalised partial AUC of % inhibition dose-response) (DSS (score)); higher = more sensitive (stronger inhibition of viability); extreme values may be limits of the assay
FMOC14 = patient-derived high-grade serous ovarian cancer cells; conditions: 72 h; library: FO5A; assay format: 2D, 384-well, CellTiter-Glo
Outline: (§1)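 On 384-well flat clear-bottom plates carrying compounds at five concentrations across a 10,000-fold range, patient-derived ovarian cancer cells below passage 10 were incubated for 72 h at 37 °C with 5% CO2. CellTiter-Glo readout of viability was processed in Breeze. A higher drug sensitivity score, defined as the partial area under the percent-inhibition dose-response curve divided by the log of the upper asymptote, means greater sensitivity.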

FMOC06 = patient-derived mucinous ovarian cancer cells; conditions: 72 h; library: FO5A; assay format: 2D, 384-well, CellTiter-Glo
Outline: as §1

FMOC02_3 = patient-derived low-grade serous ovarian cancer cells; conditions: 72 h; library: FO5A; assay format: 2D, 384-well, CellTiter-Glo
Outline: as §1

FMOC24 = patient-derived high-grade serous ovarian cancer cells; conditions: 72 h; library: FO5A; assay format: 2D, 384-well, CellTiter-Glo
Outline: as §1

FMOC25_2 = patient-derived low-grade serous ovarian cancer cells; conditions: 72 h; library: FO5A; assay format: 2D, 384-well, CellTiter-Glo
Outline: as §1

FMOC22 = patient-derived mucinous ovarian cancer cells; conditions: 72 h; library: FO5A; assay format: 2D, 384-well, CellTiter-Glo
Outline: as §1

FMOC25_1 = patient-derived low-grade serous ovarian cancer cells; conditions: 72 h; library: FO4B; assay format: 2D, 384-well, CellTiter-Glo
Outline: as §1

FMOC03 = patient-derived mucinous ovarian cancer cells; conditions: 72 h; library: FO5A; assay format: 2D, 384-well, CellTiter-Glo
Outline: as §1

FMOC09 = patient-derived high-grade serous ovarian cancer cells; conditions: 72 h; library: FO5A; assay format: 2D, 384-well, CellTiter-Glo
Outline: as §1

FMOC02_2 = patient-derived low-grade serous ovarian cancer cells; conditions: 72 h; library: FO5A; assay format: 2D, 384-well, CellTiter-Glo
Outline: as §1

SMILES	drug sensitivity score (FMOC14)	drug sensitivity score (FMOC06)	drug sensitivity score (FMOC02_3)	drug sensitivity score (FMOC24)	drug sensitivity score (FMOC25_2)	drug sensitivity score (FMOC22)	drug sensitivity score (FMOC25_1)	drug sensitivity score (FMOC03)	drug sensitivity score (FMOC09)	drug sensitivity score (FMOC02_2)
COc1cc2c(cc1-c1c(C)noc1C)ncc1[nH]c(=O)n([C@H](C)c3ccccn3)c12 [I-BET151]	1.3	4.7	11.3	7.05	7.8	5.1	4.5	6.6	4.5	10.1
C=CC(=O)N1CCC[C@@H](n2nc(-c3ccc(Oc4ccccc4)cc3)c3c(N)ncnc32)C1 [Ibrutinib]	2.7	0.3	7.3	0.5	6.5	0	5.6	8.8	6	10.2
C#Cc1cccc(Nc2ncnc3cc4c(cc23)OCCOCCOCCO4)c1 [Icotinib]	2.1	3.4	10.7	1	7.1	1.8	9	9.7	8	11.2
CC(=O)[C@]1(O)Cc2c(O)c3c(c(O)c2[C@@H](O[C@H]2C[C@H](N)[C@H](O)[C@H](C)O2)C1)C(=O)c1ccccc1C3=O [Idarubicin]	6.1	5.8	9.1	9.4	9.1	7	9.2	4.8	6.3	7.8
COc1cc(C(=O)O)ccc1NC(=O)[C@@H]1N[C@@H](CC(C)(C)C)[C@](C#N)(c2ccc(Cl)cc2F)[C@H]1c1cccc(Cl)c1F [Idasanutlin]	2.5	5.3	22.7	1.9	16.6	3.6	10.5	2.6	2	18.5
O=C(Nc1ccncc1)C(=O)c1cn(Cc2ccc(Cl)cc2)c2ccccc12 [Indibulin]	0	1.3	9.6	6	9.2	3.4	5.5	4.3	4.7	10.9
CC(C)NC[C@@H](C(=O)N1CCN(c2ncnc3c2[C@H](C)C[C@H]3O)CC1)c1ccc(Cl)cc1 [Ipatasertib]	2.8	4	14.3	3	7.4	2.1	7	1	0.1	7.8
NC(=O)N1CCC(CC(=O)N2CCC([C@H]3c4ncc(Br)cc4CCc4cc(Cl)cc(Br)c43)CC2)CC1 [Lonafarnib]	10.3	12.1	0	7.5	9.8	15.1	2.7	9.8	7	6.6
CCNC(=O)c1noc(-c2cc(C(C)C)c(O)cc2O)c1-c1ccc(CN2CCOCC2)cc1 [Luminespib]	13	3.2	23	9.4	23.6	13.2	10.9	10.8	16.9	19.8
O=C(Nc1cccc(NC(=O)c2cccc(O)c2O)c1)c1cccc(O)c1O [MST-312]	8.2	5.7	7.7	5.55	2.4	10.1	4.5	6.2	9.7	2.7
CCN(CC)CCCC(C)Nc1c2ccc(Cl)cc2nc2ccc(OC)cc12 (stereo not given) [Mepacrine]	9.8	10	19.4	20.2	10.9	9.2	10.3	9.5	10.3	19.4
S=c1[nH]cnc2nc[nH]c12 [Mercaptopurine]	0	0.3	0	0.85	1.8	0	1.6	0	0	0.2
CN(Cc1cnc2nc(N)nc(N)c2n1)c1ccc(C(=O)N[C@@H](CCC(=O)O)C(=O)O)cc1 [Methotrexate]	0	0	0	0	0.2	0	0	0	0	0
CO[C@@H]1[C@H](N(C)C(=O)c2ccccc2)C[C@H]2O[C@]1(C)n1c3ccccc3c3c4c(c5c6ccccc6n2c5c31)C(=O)NC4 [Midostaurin]	3	9.1	16.9	9.3	21.2	4.5	14.5	5	10.6	21.7
CNC(=O)c1nn(C)c2c1C(C)(C)Cc1cnc(Nc3ccc(N4CCN(C)CC4)cc3)nc1-2 [Milciclib]	6.3	6.8	15.1	8.25	13.1	6.2	8.5	8.6	7.6	12.5
O=C1c2c(O)ccc(O)c2C(=O)c2c(NCCNCCO)ccc(NCCNCCO)c21 [Mitoxantrone]	3.2	1.9	5.9	3.45	7	6	0.3	2.7	8.8	4
Nc1ccccc1NC(=O)c1ccc(CNc2nccc(-c3cccnc3)n2)cc1 [Mocetinostat]	10.1	10.9	11.2	11.4	9.2	8	9.6	11.1	3.7	12.6

SMILES	drug sensitivity score (FMOC14)	drug sensitivity score (FMOC06)	drug sensitivity score (FMOC02_3)	drug sensitivity score (FMOC24)	drug sensitivity score (FMOC25_2)	drug sensitivity score (FMOC22)	drug sensitivity score (FMOC25_1)	drug sensitivity score (FMOC03)	drug sensitivity score (FMOC09)	drug sensitivity score (FMOC02_2)
N#CCNC(=O)c1ccc(-c2ccnc(Nc3ccc(N4CCOCC4)cc3)n2)cc1 [Momelotinib]	1.7	2.7	9.9	5.95	9.3	3.2	5.4	2.4	1.2	6
Cc1cc(OCc2nnc(SC3CCCC3)n2-c2cccnc2)ccc1-c1ccc(S(C)(=O)=O)cc1 [NMS-873]	9.2	8	10	9.15	9.6	8.8	8.9	9	5.3	8.3
COc1ccc(-c2ccc3ncc4c(c3c2)n(-c2ccc(N3CCNCC3)c(C(F)(F)F)c2)c(=O)n4C)cn1 [NVP-BGT226]	14.9	15.2	27	10.7	26.7	14.4	27.5	17.4	11.9	24.7
CC1(C)CCC(c2ccc(Cl)cc2)=C(CN2CCN(c3ccc(C(=O)NS(=O)(=O)c4ccc(N[C@H](CCN5CCOCC5)CSc5ccccc5)c(S(=O)(=O)C(F)(F)F)c4)cc3)CC2)C1 [Navitoclax]	7.3	6.6	21.9	21.1	23.2	4.8	14.7	6.9	0	21.7
CCOc1cc2ncc(C#N)c(Nc3ccc(OCc4ccccn4)c(Cl)c3)c2cc1NC(=O)/C=C/CN(C)C [Neratinib]	2.5	2.2	18.3	1.1	16.5	2.3	8.7	12.3	9.8	14.1
COC(=O)c1ccc2c(c1)NC(=O)/C2=C(\Nc1ccc(N(C)C(=O)CN2CCN(C)CC2)cc1)c1ccccc1 [Nintedanib]	3.3	4.5	11.7	5.85	2.1	0.6	0	1.8	4.6	8.3
O=C(c1cc(Cc2n[nH]c(=O)c3ccccc23)ccc1F)N1CCN(C(=O)C2CC2)CC1 [Olaparib]	4.4	3.6	5	4.6	3.2	2.4	3	1.4	3.2	1.7
COC(=O)C[C@](O)(CCCC(C)(C)O)C(=O)O[C@@H]1C(OC)=C[C@]23CCCN2CCc2cc4c(cc2[C@H]13)OCO4 [Omacetaxine]	21.9	19	23.8	23.6	24.6	15.3	23.8	16.7	19.1	20.2
COc1ncc(-c2ccc3nccc(-c4ccnnc4)c3c2)cc1NS(=O)(=O)c1ccc(F)cc1F [Omipalisib]	15.2	20.6	23.9	8.5	22.1	13.9	24.2	18.4	19.1	24.2
CC(C)c1cc(C(=O)N2Cc3ccc(CN4CCN(C)CC4)cc3C2)c(O)cc1O [Onalespib]	9	6	14	5.45	15.4	8.1	12	12.2	9	12.6
COC[C@H](NC(=O)c1cnc(C)s1)C(=O)N[C@@H](COC)C(=O)N[C@@H](Cc1ccccc1)C(=O)[C@@]1(C)CO1 [Oprozomib]	19.5	12.9	15.1	20.9	20.4	16.6	14.6	17.3	10.6	13.1
C=CC(=O)Nc1cc(Nc2nccc(-c3cn(C)c4ccccc34)n2)c(OC)cc1N(C)CCN(C)C [Osimertinib]	6.1	4	12	4.35	11.2	3.3	7.3	11.7	11.3	15
O=C(O)C(=O)O.[NH-][C@@H]1CCCC[C@H]1[NH-].[Pt+2] [Oxaliplatin]	6.8	7	9.9	11.3	5.7	9.6	8.9	8.8	14.9	7.5
COc1ccccc1S(=O)(=O)Nc1ccc2c(c1)CN(C)C(=O)N2 [PFI-1]	1.2	3.6	7.1	3.2	5.7	3.6	1.1	2.9	3.2	5.3
CN1CCN(c2cc(C(=O)Nc3ccc4c(c3)-c3c(c(C(N)=O)nn3-c3ccc(F)cc3)CC4)c(Cl)cn2)CC1 [PHA 408]	4	4.6	6.8	9	11	4.6	0.6	5.2	4.8	4
COc1cc(Br)c(Nc2nc(-c3c(C)nc4ncccn34)cs2)c(Br)c1 [PTC-209]	2.7	3.5	4.6	1.35	8.4	4.5	6.3	4.6	6	5.5
CC(=O)O[C@H]1C(=O)[C@@]2(C)[C@H]([C@H](OC(=O)c3ccccc3)[C@]3(O)C[C@H](OC(=O)[C@H](O)[C@@H](NC(=O)c4ccccc4)c4ccccc4)C(C)=C1C3(C)C)[C@]1(OC(C)=O)CO[C@@H]1C[C@@H]2O [Paclitaxel]	0.4	10.1	17	0.1	16.7	12.5	6.7	11.9	13.6	8.7
